Patent publication US11873291B2, “Quinoline cGAS antagonist compounds” (ImmuneSensor Therapeutics, Inc., priority 2020, dated 2024)
Read-outs that look alike come from different tables or passages of the source.

Assays:
[1] = tested on: cGAS activity in Reporter THP1 cell line; test: Cellular assay to measure cGAS activity: ISRE-Gaussia luciferase reporter THP1 cells transfected with ISD; format: cell-based; settings: Homo sapiens
Procedure, shortened: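 THP1 ISRE-Gaussia luciferase reporter cells (0.3×10^6/well) pre-incubated 5 min with compound serial dilutions, then lipofectamine-transfected with 2 μg/mL ISD (45 bp DNA) or mock. Secreted luciferase read 16 h later with 1 μM coelenterazine at pH 6.5; IC50 from fold increase over mock. Specificity counter-screen used 2 μg/mL poly(I:C) or Sendai virus 50 Unit/mL.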

[2] = target: T1, recombinant human cGAS (aa147-522) (Homo sapiens, UniProt Q8N884); test: In vitro inhibition assay of cGAS activity (ATP consumption, KinaseGlo Max); format: biochemical
T1 construct: recombinant human cGAS (aa147-522); His6-SUMO (cleaved yes); made in house; host or cells: E. coli BL21/pLys
Procedure, shortened: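 IC50 came from plotting % ATP consumption against log compound concentration, with leftover ATP detected by KinaseGlo Max chemiluminescence. Reactions ran 20 min at 37 °C with 1.5 μg/mL human cGAS (aa147-522), 6.6 μM ATP, 0.1 mM GTP and 0.01 mg/mL DNA at pH 7.5.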

[3] = THP-1, untitled table after Table 4 (continuation)
[4] = Table 3, read-out: cGAS Inhibition Results IC50
[5] = THP-1, Table 4, Gaussia luciferase
[6] = Table 2, read-out: cGAS Inhibition Results IC50

T1 sequence (Q8N884 147-522): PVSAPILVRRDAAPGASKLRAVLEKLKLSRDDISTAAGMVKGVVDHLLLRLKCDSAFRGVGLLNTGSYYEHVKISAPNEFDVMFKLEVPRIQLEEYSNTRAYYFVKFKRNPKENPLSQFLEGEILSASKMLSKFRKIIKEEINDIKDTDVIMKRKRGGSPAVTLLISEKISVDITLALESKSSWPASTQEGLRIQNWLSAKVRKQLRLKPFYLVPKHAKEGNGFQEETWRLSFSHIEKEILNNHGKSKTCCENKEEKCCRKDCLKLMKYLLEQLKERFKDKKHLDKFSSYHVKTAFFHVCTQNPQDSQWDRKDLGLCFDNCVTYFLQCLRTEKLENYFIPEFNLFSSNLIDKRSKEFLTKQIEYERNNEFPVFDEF

| SMILES | IC50 [1, 3] | IC50 [2, 4] | IC50 [1, 5] | IC50 [2, 6] |
| --- | --- | --- | --- | --- |
| O=C(O)CCCCCCNc1cc(-n2ccnc2)c2ccc(Cl)c(Cl)c2n1 [I-831] | 2000 to 10000 nM | < 2000 nM |  |  |
| COc1c(Cl)ccc2c(-n3ccnc3)cc(N3CCC[C@H]3COCCC(=O)O)nc12 [I-860] | > 10000 nM | < 2000 nM |  |  |
| C[C@H]1C[C@@H](COCCC(=O)O)N(c2cc(-n3ccnc3)c3ccc(Cl)c(Cl)c3n2)C1 [I-708] |  | < 2000 nM | < 2000 nM |  |
| O=C(O)c1cccc(OC[C@@H]2CCCN2c2cc(-n3ccnc3)c3ccc(Cl)c(Cl)c3n2)c1 [I-735, (S)-3-((1-(7,8-dichloro-4-(1H-imidazol-1-yl)quinolin-2-yl)pyrrolidin-2-yl)methoxy)benzoic acid] |  | < 2000 nM | 2000 to 10000 nM |  |
| COC(=O)CCOCC[C@@H]1CCCN1c1cc(-n2ccnc2)c2ccc(Cl)c(Cl)c2n1 [I-673] |  | 2000 to 30000 nM | < 2000 nM |  |
| O=C(O)CCOCCNc1cc(-n2ccnc2)c2ccc(Cl)c(Cl)c2n1 [I-693] |  | < 2000 nM | > 10000 nM |  |
| O=C(O)[C@@H]1[C@H](CO)CCN1c1cc(-n2ccnc2)c2ccc(Cl)c(Cl)c2n1 (racemic) [I-782, 1-(7,8-dichloro-4-(1H-imidazol-1-yl)quinolin-2-yl)-3-(hydroxymethyl)pyrrolidine-2-carboxylic acid] | > 10000 nM | < 2000 nM |  |  |
| O=C(O)CCCC1CCCN(c2cc(-n3ccnc3)c3ccc(Cl)c(Cl)c3n2)C1 (stereo not drawn) [I-739] |  | < 2000 nM | < 2000 nM |  |
| CCOC(=O)[C@@H]1CCCN1c1cc(-n2ccnc2)c2ccc(Cl)c(Cl)c2n1 [I-594] |  | 2000 to 30000 nM | 2000 to 10000 nM |  |
| NC(=O)COC[C@@H]1CCCN1c1cc(-n2ccnc2)c2ccc(Cl)c(Cl)c2n1 [I-760, (S)-2-((1-(7,8-dichloro-4-(1H-imidazol-1-yl)quinolin-2-yl)pyrrolidin-2-yl)methoxy)acetamide] | > 10000 nM | < 2000 nM |  |  |
| O=C(O)c1noc(CCNc2cc(-n3ccnc3)c3ccc(Cl)c(Cl)c3n2)n1 [I-882] | > 10000 nM | < 2000 nM |  |  |
| O=C(O)[C@@H]1C[C@@H]2C[C@@H]2N1c1cc(-n2ccnc2)c2ccc(Cl)c(Cl)c2n1 [I-469] |  | < 2000 nM | < 2000 nM |  |
| COc1ccc(-c2cc(-n3ccnc3)c3ccc(Cl)c(Cl)c3n2)cc1COCCC(=O)O [I-884] | < 2000 nM | < 2000 nM |  |  |
| C[C@H]1CC[C@@H](C(=O)O)N1c1cc(-n2ccnc2)c2ccc(Cl)c(Cl)c2n1 [I-507] |  | < 2000 nM | 2000 to 10000 nM |  |
| C[C@@]1(COCCC(=O)O)CCCN1c1cc(-n2ccnc2)c2ccc(Cl)c(Cl)c2n1 [I-696] |  | < 2000 nM | < 2000 nM |  |
| O=C(O)CCOC[C@@H]1CC2(CC2)CN1c1cc(-n2ccnc2)c2ccc(Cl)c(Cl)c2n1 [I-709] |  | < 2000 nM | < 2000 nM |  |
| O=C(O)C1CC(OC[C@@H]2CCCN2c2cc(-n3ccnc3)c3ccc(Cl)c(Cl)c3n2)C1 (stereo partly drawn) [I-723] |  | < 2000 nM | 2000 to 10000 nM |  |
| O=C(O)CCOCc1cc(Cl)cc(-c2cc(-n3ccnc3)c3ccc(Cl)c(Cl)c3n2)c1 [I-879] | < 2000 nM | < 2000 nM |  |  |
| O=C(O)[C@@H]1[C@H]2CC[C@H](C2)N1c1cc(-n2ccnc2)c2ccc(Cl)c(Cl)c2n1 [I-516] |  | < 2000 nM | > 10000 nM |  |
| O=C(O)CCOCC1CN(c2cc(-n3ccnc3)c3ccc(Cl)c(Cl)c3n2)C1 [I-689] |  | < 2000 nM | > 10000 nM |  |
| COC(=O)[C@@H]1[C@@H](O)CCN1c1cc(-c2cn[nH]c2)c2ccc(Cl)c(Cl)c2n1 [I-598] |  | 2000 to 30000 nM | < 2000 nM |  |
| O=C(O)CCOC[C@H](O)[C@@H]1CCCN1c1cc(-n2ccnc2)c2ccc(Cl)c(Cl)c2n1 [I-724, 3-((R)-2-((S)-1-(7,8-dichloro-4-(1H-imidazol-1-yl)quinolin-2-yl)pyrrolidin-2-yl)-2-hydroxyethoxy)propanoic acid] |  | < 2000 nM | 2000 to 10000 nM |  |
| O=C(O)CCCC[C@@H]1CCCN1c1cc(-n2ccnc2)c2ccc(Cl)c(Cl)c2n1 [I-683] |  | < 2000 nM | < 2000 nM |  |

| SMILES | IC50 [1, 3] | IC50 [2, 4] | IC50 [1, 5] | IC50 [2, 6] |
| --- | --- | --- | --- | --- |
| O=C(O)[C@@H]1[C@@H]2C[C@@H]2CN1c1cc(-n2ccnc2)c2ccc(Cl)c(Cl)c2n1 [I-470] |  | < 2000 nM | 2000 to 10000 nM |  |
| COC(=O)[C@@H]1[C@H](F)CCN1c1cc(-n2ccnc2)c2ccc(Cl)c(Cl)c2n1 [I-650] |  | 2000 to 30000 nM | 2000 to 10000 nM |  |
| O=C(O)CCOCCN(c1cc(-n2ccnc2)c2ccc(Cl)c(Cl)c2n1)C1CCCCC1 [I-836] | < 2000 nM | < 2000 nM |  |  |
| CCN(CCOCCC(=O)O)c1cc(-n2ccnc2)c2ccc(Cl)c(Cl)c2n1 [I-832] | < 2000 nM | < 2000 nM |  |  |
| COC(=O)C(F)COC[C@@H]1CCCN1c1cc(-n2ccnc2)c2ccc(Cl)c(Cl)c2n1 (stereo partly drawn) [I-700] |  | < 2000 nM | 2000 to 10000 nM |  |
| COC(=O)COC[C@@H]1CN(c2cc(-c3cn[nH]c3)c3ccc(Cl)c(Cl)c3n2)CCO1 [I-751] |  | < 2000 nM | 2000 to 10000 nM |  |
| COC(=O)CCOC[C@@H]1CN(c2cc(-c3cn[nH]c3)c3ccc(Cl)c(Cl)c3n2)CCO1 [I-752] |  | < 2000 nM | > 10000 nM |  |
| COc1ccc(-c2cc(-n3ccnc3)c3ccc(Cl)c(Cl)c3n2)cc1C(=O)O [I-39] |  |  | 2000 to 10000 nM | < 2000 nM |
| O=C(O)[C@@H]1C[C@@H](F)CN1c1cc(-n2ccnc2)c2ccc(Cl)c(Cl)c2n1 [I-322] |  |  | > 10000 nM | < 2000 nM |
| COC(=O)CCNC[C@@H]1CCCN1c1cc(-n2ccnc2)c2ccc(Cl)c(Cl)c2n1 [I-753, methyl (S)-3-(((1-(7,8-dichloro-4-(1H-imidazol-1-yl)quinolin-2-yl)pyrrolidin-2-yl)methyl)amino)propanoate] |  | > 30000 nM | > 10000 nM |  |
| O=C(O)COC[C@@H]1C[C@H](F)CN1c1cc(-n2ccnc2)c2ccc(Cl)c(Cl)c2n1 [I-706] |  | < 2000 nM | < 2000 nM |  |
| O=C1CN(c2cc(-n3ccnc3)c3ccc(Cl)c(Cl)c3n2)CCCN1 [I-86] |  |  | 2000 to 10000 nM | < 2000 nM |
| COC(=O)CC(C)OC[C@@H]1CCCN1c1cc(-n2ccnc2)c2ccc(Cl)c(Cl)c2n1 (stereo partly drawn) [I-718] |  | 2000 to 30000 nM | < 2000 nM |  |
| O=C(O)CCOCC12CC(CN1c1cc(-n3ccnc3)c3ccc(Cl)c(Cl)c3n1)C2 [I-800] | < 2000 nM | < 2000 nM |  |  |
| N#CNC(=O)COC[C@@H]1CCCN1c1cc(-n2ccnc2)c2ccc(Cl)c(Cl)c2n1 [I-762] | > 10000 nM | < 2000 nM |  |  |
| O=C(O)[C@@H]1CCCN1c1cc(-n2ccnc2)c2ccc(Cl)c(Cl)c2n1 [I-428] |  |  | 2000 to 10000 nM | < 2000 nM |
| CC(OCCC(=O)O)c1cccc(-c2cc(-n3ccnc3)c3ccc(Cl)c(Cl)c3n2)c1 (stereo not drawn) [I-880] | 2000 to 10000 nM | < 2000 nM |  |  |
| O=C(O)CCOC[C@@H]1CN(c2cc(-c3cn[nH]c3)c3ccc(Cl)c(Cl)c3n2)CCO1 [I-741] |  | < 2000 nM | 2000 to 10000 nM |  |
| O=C(O)[C@@H]1CC2(CC2)CN1c1cc(-n2ccnc2)c2ccc(Cl)c(Cl)c2n1 [I-478] |  | < 2000 nM | 2000 to 10000 nM |  |
| COC(=O)[C@@H]1CC2C[C@@H]2N1c1cc(-n2ccnc2)c2ccc(Cl)c(Cl)c2n1 (stereo partly drawn) [I-576] |  | < 2000 nM | < 2000 nM |  |
| O=C(O)c1cnn(C[C@@H]2CCCN2c2cc(-n3ccnc3)c3ccc(Cl)c(Cl)c3n2)c1 [I-728] |  | < 2000 nM | 2000 to 10000 nM |  |
| O=C(O)CCCC[C@@H]1CCCN1c1cc(-c2cn[nH]c2)c2ccc(Cl)c(Cl)c2n1 [I-684] |  | < 2000 nM | < 2000 nM |  |
